# Experimental data taken from US20080076786A1, “USE OF RADICAL-SCAVENGING COMPOUNDS FOR TREATMENT AND PREVENTION OF NO-DEPENDENT MICROCIRCULATION DISORDERS” (priority 2001, published 2008).
# Tests used:
# NO Synthetase = NO Synthetase knock-out mice, NO synthetase activity blocked or partially inhibited; assay type: in vivo; conditions: NO Synthetase activity blocked or reduced; compared with pravastatin on elevating NO production
# stroke risk = conditions: ESPS-2, compared with low-dose aspirin / aspirin alone; cited from earlier work
# [1] = test system: oxygen radicals and proteinuria; conditions: experimental animals with aminonucleoside nephropathy; cited from earlier work
# lipid peroxidation = conditions: human nonneoplastic lung tissue; cited from earlier work
# [2] = test system: reoccurrence of myocardial infarcts (MI); conditions: chronic application, published meta analysis; cited from earlier work
Structure (SMILES),effect of NO sparing (preventing NO destruction) (NO Synthetase),reduction of stroke risk (stroke risk),oxygen radicals and proteinuria [1],lipid peroxidation (lipid peroxidation),reduction of the incidence of reoccurrence of myocardial infarcts [2] [%]
"OCCN(CCO)c1nc(N2CCCCC2)c2nc(N(CCO)CCO)nc(N3CCCCC3)c2n1 [Dipyridamole, 2,6-bis(diethanolamino)-4,8-dipiperidino-pyrimido[5,4-d]pyrimidine]",seen as independent effect,as effective as low-dose aspirin,suppress oxygen radicals and proteinuria,Inhibition of lipid peroxidation,–
"CC(=O)Oc1ccccc1C(=O)O [Aspirin, acetyl salicylic acid]",–,–,–,–,18
